The target of experiment [1] is 2A (Human rhinovirus 2, UniProt P04936). The following applies: Sommergruber et al. (1992); read-out: IC50 für 2A; cited from earlier work.
Experiment [2] has as its target T1, HRV2 2A Proteinase (Human rhinovirus 2, UniProt P04936).
T1 construct: allen 142 Aminosäuren der 2A Proteinase von HRV2 und 2 Stoppcodons; N-terminal leader: first 14 aa of T7 gene 10 protein + last 7 aa of HRV2 VP1 (removed by self-cleavage) (N, cleaved yes); made in house; host or cells: E. coli BL21(DE3)LysS, plasmid pET/2A; 30 % ammonium sulfate precipitate
Put plainly: In vitro translation of capped pLink-2C RNA in rabbit reticulocyte lysate pretreated with 2A preparation, with inhibitor. The experiment is classed as biochemical. The note with it: 2A Präparation treated with 0,5 mM Elastatinal, Figur 8B, Spur 8. The method, then:
In vitro Transkription dieser Plasmide nach Linearisierung mit BamHI mittels T7 RNA Polymerase wurde wie beschrieben (Duechler et al. (1989), loc. cit.) durchgeführt. Für die Synthese von RNA mit Cap-Struktur wird dem Transkriptionsansatz ⁷mGpppG und GTP zugesetzt. Zum Beispiel kann der von Duechler et al. (1989, loc. cit.) beschriebene Reaktionsansatz 1 mM 7MeGppG und 250 µm GTP enthalten. Am Ende der Reaktionszeit wurde die DNA durch Zugabe von DNase I (RNAse-frei, Boehringer Mannheim) verdaut, die Proteine durch Phenolextraktion entfernt, und die RNA nach Zugabe von einem Drittel Volumen 8 M Ammoniumacetat mit Ethanol gefällt. Nach nochmaliger Fällung mit Ethanol wurde die RNA anschließend in Wasser aufgenommen und ein Aliquot durch Agarosegelelektrophorese auf Qualität überprüft. Der Laufpuffer enthielt 1% SDS. Für die in vitro Translation wurde jeweils 1 µg dieser RNAs eingesetzt. Die Reaktion enthielt in 20 µl 90 mM KCl, 0.3 mM MgCl₂, 10 mM Kreatinphosphat, 2 µl ³⁵S-Trans-Label (ICN; 10 µCi/µl, 1000 Ci/mmol) und 11,5 µl Kaninchenreticulocytenlysat, das mit Micrococcal Nuclease (Sigma) behandelt worden war. Das Kaninchenreticulocytenlysat wurde nach der Methode von Jackson, R. und Hunt, T. (Meth. Enzymol. (1983) 96, 50 - 74) durch Behandlung mit Micrococcal Nuclease hergestellt. […]

For experiment [3], the target named is T1, HRV2 2A Proteinase. Put plainly: In vitro translation of globin RNA in HeLa cell extract pretreated with 2A proteinase, with inhibitor. The experiment is classed as biochemical. The note with it: 2A Proteinase preincubated with 0,5 mM Elastatinal, Fig. 16C, Spur 4. The procedure: Zur Herstellung eines HeLa-Zellextraktes wurde eine 1 l HeLa-Suspensionkultur (z.B. HeLa S3 (03-157, FLOWLABS) oder HeLa Ohio (03-147, FLOWLABS)), (ca. 4 x 10⁵ Zellen/ml) in halb-logarithmischer Phase abzentrifugiert (20 min, 1200 rpm), mit isotonischem Puffer gewaschen, durch mehrmaliges "Douncen" (40- bis 50-mal) aufgebrochen und die Zelltrümmer durch Zentrifugation (3 min, 3000 rpm) entfernt. Der Überstand wurde erneut zentrifugiert (20 min, 10000 rpm), das Pellet verworfen und der neue Überstand nochmals zentrifugiert (20 min, 13000 rpm). Der erhaltene Überstand wurde dann bei 4°C gegen Dialysepuffer (zweimal je 400 ml) dialysiert und nochmals 20 Minuten bei 13000 rpm zentrifugiert (20 min, 13000 rpm). Der Überstand (S 20-Extrakt) wurde portioniert und in flüssigem Stickstoff gelagert. isotonischer Puffer: 10 mM Hepes, pH 7,9, 140 mM KCl, 1,5 mM MgCl₂, 1 mM EDTA, 0,5 mM PMSF. Dialysepuffer: 0,1 M KCl, 20 % Glycerin, 20 mM Hepes, pH 7,9, 0,2 mM EDTA, 0,5 mM DTT, 0,5 mM PMSF.
1 ml Portionen des S 20-Extraktes wurden dann mit Micrococcal Nuclease (Boehringer Mannheim; Nr. 107921) behandelt, um die endogene RNA abzubauen: Zunächst wurde der Extrakt zentrifugiert (15 min, 4°C, 13000 rpm) und das Pellet verworfen. Zum Überstand (1 ml) wurden zugegeben: 1,2 µl 1 M CaCl₂ 1,5 µl 1 M MgOAc 16,0 µl Micrococcal Nuclease (15 U/µl). […]

In experiment [4] the test system is host cell shut-off. Briefly: Inhibition of host cell shut-off (statement, test not described). The following applies: statement only, no data given.
The target of experiment [5] is T2, HRV2 2A (Human rhinovirus 2, UniProt P04936).
T2 construct: wurden mit einer reifen, rekombinanten HRV2 2A durchgeführt; made in house
Briefly: Competition assay of peptide substrates against reference peptide P8-P8' (HPLC analysis of cleavage). It counts as biochemical. The following applies: for Spaltbarkeit durch HRV2 2A (result in words): competition assay with P8-P8'. The text has this: Die Substratspezifitätsstudien, wie auch alle anderen Studien in diesem Beispiel, wurden mit einer reifen, rekombinanten HRV2 2A durchgeführt. Mittels Kompetitionsstudien unter Verwendung eines 16-mer Wildtyp-Peptidsubstrats (P8-P8') als Referenzpeptid wurde der jeweilige (Vmax/Km)rel-Wert für das mutierte Peptidsubstrat ermittelt. Das Peptid P8-P8' ([…]* […] (SEQ ID NO. 23)) entspricht der nativen Spaltstelle von HRV2 2A im Polyprotein ([…] ist der C-terminale Teil von VP1 und […] der N-Terminus von HRV2 2A). Dieses Peptid wird von der rekombinanten HRV2 2A intermolekular korrekt zwischen Ala und Gly prozessiert (Km-Wert: (5,4±0,02) x 10⁻⁴ Mol/l; Sommergruber et al., loc cit). […] Die Kompetitionsreaktion wurde durch Zugabe von 1 µl einer reinen (ca. 95%) HRV2 2A Stammlösung (2mg/ml in Puffer A + 0,05% NaN₃) gestartet. 50 µl Proben wurden jeweils nach 30, 60, 90, 120 und 150 sek bzw. nach 2, 4, 8, 16 und 32 min entnommen, in ein ULTRAFREE-MC Röhrchen (10,000 NMWL; Fa. Millipore) mit jeweils 250 µl 0,5 M HClO₄ transferriert (Reaktionsstop), gemischt und auf Eis gestellt (mindestens 15 min). Anschließend wurde die Lösung 30 min bei 14K, 4°C in einer SIGMA Eppendorfzentrifuge zentrifugiert. Das Filtrat wurde direkt zur HPLC Analyse eingesetzt. Peptidsubstrate und deren Spaltprodukte wurden entweder auf einem Kurzgradienten (5,5 min; 5,4% B/min; Merck Supersphere C18 Säule, 4x50 mm) oder einem Langgradienten (34,5 min; 0,8% B/min; Bakerbond WP C18 Säule, 4,6x250mm) aufgetrennt. Die Messung der UV Absorption wurde bei 210 nm und 280 nm durchgeführt. Die Spaltprodukte wurden mittels Komigration von Referenzpepetiden und/oder durch Proteinsequenzierung (Hunkapiller und Hood (1983) Science 219, 650-659) identifiziert. Der prozentuelle Anteil der Spaltung für jeden Zeitpunkt wurde durch Vergleich der Flächen der C- und N-terminalen Produktpeaks mit dem des verbliebenen ungespaltenen Peptidsubstrats ermittelt. Zusätzlich wurden die Daten graphisch ausgewertet, um etwaige Abweichungen vom klassischen Kurvenverlauf zu erkennen (z.B. sigmoide Kurve, allosterische Effekte etc.). Bei keinem der in Abb. 23 angeführten mutierten Peptidsubstrate konnte solch ein Effekt beobachtet werden. Für jedes Substrat und dessen Spaltprodukte war die Gesamtfläche der Peaks unabhängig vom Maß der Spaltung (< 5%). Für zwei Peptidsubstrate 1 und 2 ergeben sich in einem Kompetitionsassay nach Pallai et al. (Pallai et al. (1989) J. Biol. Chem. 264, 9738-9741) die (Vmax/Km)rel-Werte: (Vmax/Km)1/(Vmax/Km)2 = log(1-F1)/log(1-F2) [formula] wobei F der Anteil des umgesetzten Substrats ist. In allen Kompetitionsstudien waren Substrat- und Produktpeaks entweder auf dem langen oder dem kurzen bzw. auf beiden Gradienten über HPLC-Analyse voneinander trennbar. […]

This is an account of results in patent EP0564801A1, “Analysis of host cell shut-off” (BOEHRINGER INGELHEIM INTERNATIONAL GmbH, priority 1992, dated 1993).

pIC50: −log10 of the molar value.

T2 sequence (P04936 851-992): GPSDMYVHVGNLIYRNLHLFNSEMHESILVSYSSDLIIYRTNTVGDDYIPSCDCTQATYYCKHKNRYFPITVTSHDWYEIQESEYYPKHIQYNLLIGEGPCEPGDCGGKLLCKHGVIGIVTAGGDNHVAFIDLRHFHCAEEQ
T1 sequence (P04936 851-992): as above
2A, sequence (P04936 851-992): as above

For `CC(C)C[C@H](NC(=O)N[C@H](C(=O)N[C@@H](CCC(N)=O)C(=O)N[C@@H](C)C=O)[C@@H]1CCNC(=N)N1)C(=O)O` [Elastatinal], the pIC50 in experiment [1] is 4.30. Further, in experiment [2], the “Effect on 2A-induced change of translation pattern” value was “die Inhibition von 2A verhindert die Änderung der Translationseigenschaften”. For the same compound, in experiment [3], the “Effect on 2A action on translation of Globin RNA” value was “die 2A-Wirkung auf die Translation wird inhibiert”.

Consider “p220-3: 16-mer Oligopeptid, Position im p220-Molekül 737-752 (SEQ ID NO. 124) (SSKRTAADKDRGEEDA; UniProt Q04637 737-752, looked up, fragment)”, for which the “Inhibition of host cell shut-off” value in experiment [4] is listed as “in der Lage, den "host cell shut-off" zu inhibieren”. In experiment [5], the “Competitive inhibition of HRV2 2A” value is on record as “wirken als kompetitive Inhibitoren” and the “Spaltbarkeit durch HRV2 2A (result in words)” value is given as “von HRV2 2A prozessiert werden können”.

For “p220-4: 16-mer Oligopeptid, Position im p220-Molekül 476-491 (SEQ ID NO. 125) (SEKGGEELLPPESTPI; UniProt Q04637 476-491, looked up, fragment)”, the “Inhibition of host cell shut-off” value in experiment [4] was “in der Lage, den "host cell shut-off" zu inhibieren”. Besides, in experiment [5], the “Competitive inhibition of HRV2 2A” value is “wirken als kompetitive Inhibitoren” and the “Spaltbarkeit durch HRV2 2A (result in words)” value is listed as “von HRV2 2A prozessiert werden können”.
